Assay results published in patent US5424303A, “Substituted aminophosphonate derivatives, process for their preparation and pharmaceutical compositions containing them” (Symphar SA, priority 1992, dated 1995).

Tests used:
[1] = test system: lipid peroxidation (rat liver homogenate); test: Antioxidant activity, inhibition of iron induced lipid peroxidation in liver homogenate; format: biochemical, Wistar rat; settings: FeSO4, 37° C., 2 h; <25 μM where IC50 was not determined
Method: The liver of a Wistar rat anesthetized with ether was collected and homogenized in 4 volumes of phosphate buffer (+4° C., pH 7.4) by means of a Potter. After centrifugation at 2000 rpm for 10 min the supernatant obtained was kept at +4° C. Lipid peroxidation was carried out in presence of FeSOhd according to the method described by A. T. Quitaniha et at, Ann.
The mixture contained 1.7 ml phosphate buffer, 0.2 ml homogenate and 0.1 ml of a 2 mM FeSO4 solution. The test compounds were added in a volume of 61 μl of ethanol or DMSO. Oxydation was carried out at 37° C. for 2 h and was stopped by the addition of 20 μl of 2% ethanolic solution of BHT.

plasma cholesterol = test: Hypocholesterolemic activity, plasma cholesterol in mice fed test compound in diet; format: in vivo, OF1 strain mice; settings: for change in vivo at 180 mg/kg/day: Mus musculus, feed or water, 240 h, read-out: Plasma Cholesterol (% Control), 0.1% compound in food, 10 days, ca. 180 mg/kg daily, mouse; for decrease plasma cholesterol by: mouse, 0.1% in food, 10 days
Method: A. Hypocholesterolemic activity
Mouse fed a normal diet is a convenient model which was proposed by several authors (P. Olivier et al, Atherosclerosis 70, 107-114, 1988) ,for the screening for hypocholesterolemic drugs. OF1 strain mice (Iffa Credo) weighing between 25 and 35 g were divided into 5 groups of 5 animals each, four groups received the test compounds and the fifth group served as control. The test compounds were dissolved in diethyl ether. The ether solution was added to food to obtain a final concentration of 0.1%. compound in food. Ether was then evaporated at room temperature. The animals were fed for 10 days, the dally food intake corresponds to ca. 180 mg/kg. After an overnight fast, they were sacrificed by decapitation under ether anesthesia. Blood samples were collected using EDTA as anticoagulant.
Plasma cholesterol was measured by an enzymatic test (DIAMED, Morat, Switzerland). The mean values of each group receiving the test or reference compounds were expressed as percent of mean value of the contemporary control.

Row | SMILES | IC50 [1] [µM] | change in vivo at 180 mg/kg/day (plasma cholesterol) [%] | decrease plasma cholesterol by (plasma cholesterol) | hypocholesterolemic activity (in words) (plasma cholesterol; this model (mouse))
1 | CCOP(=O)(OCC)C(NCCc1ccccc1)c1cc(C)c(O)c(C)c1 (stereo not shown) [Compound 72] | > 25 | -1 | – | –
2 | CC(C)OP(=O)(OC(C)C)C(NCCc1ccc(Cl)cc1)c1cc(C(C)(C)C)c(O)c(C(C)(C)C)c1 (stereo not shown) [Compound 19] | 3 | -33 | more than 30% | –
3 | CCOP(=O)(OCC)C(NCc1ccccc1)c1cc(C(C)(C)C)c(O)c(C(C)(C)C)c1 (stereo not shown) [Compound 12] | 0.7 | -23 | – | –
4 | CCCCCc1ccc(NC(c2cc(C(C)(C)C)c(O)c(C(C)(C)C)c2)P(=O)(OCC)OCC)cc1 (stereo not shown) [Compound 10] | 2.9 | 11 | – | –
5 | CCOP(=O)(OCC)C(Nc1ccc(O)c(C)c1)c1cc(C(C)(C)C)c(O)c(C(C)(C)C)c1 (stereo not shown) [Compound 5] | 1.3 | 2 | – | –
6 | CCCOP(=O)(OCCC)C(NCCCc1ccccc1)c1cc(C(C)(C)C)c(O)c(C(C)(C)C)c1 (stereo not shown) [Compound 23] | < 25 | -4 | – | –
7 | CCCCOP(=O)(OCCCC)C(NCCc1ccc(Cl)cc1)c1cc(C(C)(C)C)c(O)c(C(C)(C)C)c1 (stereo not shown) [Compound 20] | 3.4 | -9 | – | –
8 | CCOP(=O)(OCC)C(NCc1ccccc1)c1cc(OC)c(O)c(OC)c1 (stereo not shown) [Compound 71] | > 25 | 1 | – | –
9 | CCOP(=O)(OCC)C(Cc1cc(C(C)(C)C)c(O)c(C(C)(C)C)c1)NCCCc1ccccc1 (stereo not drawn) [Compound 68, Diethyl α-(3,5-di-tert-butyl-4-hydroxybenzyl)-N-(3-phenylpropyl)-aminomethylphosphonate] | < 25 | -18 | – | –
10 | CCOP(=O)(OCC)C(NCCc1ccccc1)c1cc(C)c(O)c(C(C)(C)C)c1 (stereo not shown) [Compound 75] | 4.8 | -12 | – | –
11 | CC(=O)N(CCCc1ccccc1)C(c1cc(C(C)(C)C)c(O)c(C(C)(C)C)c1)P(=O)(OC(C)C)OC(C)C (stereo not shown) [Compound 62] | < 25 | -32 | more than 30% | –
12 | CCOP(=O)(OCC)C(c1cc(C(C)(C)C)c(O)c(C(C)(C)C)c1)N(C)c1ccccc1 (stereo not shown) [Compound 50] | 2.9 | 5 | – | –
13 | CCOP(=O)(OCC)C(NCCc1ccc(Cl)cc1)c1cc(C(C)(C)C)c(O)c(C(C)(C)C)c1 (stereo not drawn) [Compound 17, Diethyl α-(3,5-di-tert-butyl-4-hydroxyphenyl)-N-[2-(4-chlorophenyl)ethyl]-aminomethylphosphonate] | 5.3 | -43 | more than 30% | –
14 | CCOP(=O)(OCC)C(c1cc(C(C)(C)C)c(O)c(C(C)(C)C)c1)N(CCCc1ccccc1)C(C)=O (stereo not drawn) [Compound 60, Diethyl α-(3,5-di-tert-butyl-4-hydroxyphenyl)-N-acetyl-N-(3-phenylpropyl)-aminomethylphosphonate] | 2.6 | -49 | more than 30% | –
15 | Cc1cc(C(C)(C)C)c(O)c(C(C)(C)C)c1 [BHT, 2,6-di-tert-butyl-4-methylphenol, reference compound] | 5 | – | – | no hypocholesterolemic activity
16 | CCOP(=O)(OCC)C(NC(C)c1ccccc1)c1cc(C(C)(C)C)c(O)c(C(C)(C)C)c1 (stereo not drawn) [Compound 29, Diethyl α-(3,5-di-tert-butyl-4-hydroxyphenyl)-N-(1-phenylethyl)-aminomethyldiphosphonate] | 5.5 | -32 | more than 30% | –
17 | CCCCOP(=O)(OCCCC)C(c1cc(C(C)(C)C)c(O)c(C(C)(C)C)c1)N(CCCc1ccccc1)C(C)=O (stereo not shown) [Compound 63] | < 25 | 4 | – | –
18 | CCOP(=O)(OCC)C(NCCc1ccccn1)c1cc(C(C)(C)C)c(O)c(C(C)(C)C)c1 (stereo not drawn) [Compound 43, Diethyl α-(3,5-di-tert-butyl-4-hydroxyphenyl)-N-[2-(2-pyridyl)-ethyl]aminomethyl-phosphonate] | < 25 | -35 | more than 30% | –
19 | CCCOP(=O)(OCCC)C(NCCc1ccc(Cl)cc1)c1cc(C(C)(C)C)c(O)c(C(C)(C)C)c1 (stereo not shown) [Compound 18] | 2.9 | -23 | – | –
20 | CCOP(=O)(OCC)C(NCc1ccccc1)c1ccc(O)c(OC)c1 (stereo not shown) [Compound 70] | > 25 | -10 | – | –
21 | CCCCOP(=O)(OCCCC)C(NCCCc1ccccc1)c1cc(C(C)(C)C)c(O)c(C(C)(C)C)c1 (stereo not shown) [Compound 25] | < 25 | -4 | – | –

Row | SMILES | IC50 [1] [µM] | change in vivo at 180 mg/kg/day (plasma cholesterol) [%] | decrease plasma cholesterol by (plasma cholesterol) | hypocholesterolemic activity (in words) (plasma cholesterol; this model (mouse))
22 | CCOP(=O)(OCC)C(NCCOc1ccccc1)c1cc(C(C)(C)C)c(O)c(C(C)(C)C)c1 (stereo not shown) [Compound 28] | < 25 | 4 | – | –
23 | CCCCCNC(c1cc(C(C)(C)C)c(O)c(C(C)(C)C)c1)P(=O)(OCC)OCC (stereo not shown) [Compound 2] | 2.5 | -8 | – | –
24 | CCOP(=O)(OCC)C(Nc1cccnc1)c1cc(C(C)(C)C)c(O)c(C(C)(C)C)c1 (stereo not shown) [Compound 41] | 3.5 | -35 | – | –
25 | COP(=O)(OC)C(c1cc(C(C)(C)C)c(O)c(C(C)(C)C)c1)N(CCCc1ccccc1)C(C)=O (stereo not shown) [Compound 59] | < 25 | -36 | – | –
26 | CCOP(=O)(OCC)C(NCc1ccc2c(c1)OCO2)c1cc(C(C)(C)C)c(O)c(C(C)(C)C)c1 (stereo not drawn) [Compound 38, Diethyl α-(3,5-di-tert-butyl4-hydroxyphenyl)-N-piperonyl-aminomethylphosphonate] | 4.3 | -40 | more than 30% | –
27 | CCOP(=O)(OCC)C(NCCc1ccc(C)cc1)c1cc(C(C)(C)C)c(O)c(C(C)(C)C)c1 (stereo not shown) [Compound 14] | < 25 | -6 | – | –
28 | CCOP(=O)(OCC)C(Nc1ccc(Cl)cc1)c1cc(C(C)(C)C)c(O)c(C(C)(C)C)c1 (stereo not shown) [Compound 6] | < 25 | -17 | – | –
29 | CCOP(=O)(OCC)C(NCCc1ccc(O)cc1)c1cc(C(C)(C)C)c(O)c(C(C)(C)C)c1 (stereo not shown) [Compound 15] | < 25 | -18 | – | –
30 | COP(=O)(OC)C(NCCCc1ccccc1)c1cc(C(C)(C)C)c(O)c(C(C)(C)C)c1 (stereo not shown) [Compound 21] | < 25 | -33 | more than 30% | –
31 | CCOP(=O)(OCC)C(Nc1ccccc1)c1cc(C(C)(C)C)c(O)c(C(C)(C)C)c1 (stereo not shown) [Compound 3] | 5.1 | -30 | more than 30% | –
32 | CCOP(=O)(OCC)C(NC1CCCCC1)c1cc(C(C)(C)C)c(O)c(C(C)(C)C)c1 (stereo not shown) [Compound 65] | < 25 | 7 | – | –
33 | CCOP(=O)(OCC)C(Nc1ccc(O)cc1)c1cc(C(C)(C)C)c(O)c(C(C)(C)C)c1 (stereo not shown) [Compound 4] | 4.1 | -15 | – | –
34 | CCOP(=O)(OCC)C(NCCc1ccccc1)c1cc(C(C)(C)C)c(O)c(C(C)(C)C)c1 (stereo not shown) [Compound 13] | 4.9 | -28 | – | –
35 | CCOP(=O)(OCC)C(NCCCc1ccccc1)c1ccc(OC)cc1 (stereo not shown) [Compound 79] | > 25 | 9 | – | –
36 | CCOP(=O)(OCC)C(NC(C)(C)C)c1cc(C(C)(C)C)c(O)c(C(C)(C)C)c1 (stereo not shown) [Compound 1] | > 25 | 8 | – | –
37 | CCOP(=O)(OCC)C(NC1(c2ccccc2)CCCC1)c1cc(C(C)(C)C)c(O)c(C(C)(C)C)c1 (stereo not drawn) [Compound 45, Diethyl α-(3,5-di-tert-butyl-4-hydroxyphenyl)-N-(1-phenylcyclopentyl)-aminomethylphosphonate] | < 25 | -14 | – | –
38 | CCOP(=O)(OCC)C(NCCc1ccccc1)c1cc(C(C)C)c(O)c(C(C)C)c1 (stereo not shown) [Compound 74] | 4.4 | -16 | – | –
39 | CC(C)OP(=O)(OC(C)C)C(NCCCc1ccccc1)c1cc(C(C)(C)C)c(O)c(C(C)(C)C)c1 (stereo not shown) [Compound 24] | < 25 | -22 | – | –
40 | CCOP(=O)(OCC)C(NCc1cccnc1)c1cc(C(C)(C)C)c(O)c(C(C)(C)C)c1 (stereo not drawn) [Compound 42, Diethyl α-(3,5-di-tert-butyl-4-hydroxyphenyl)-N-(3-picolyl)-aminomethylphosphonate] | 12.8 | -43 | more than 30% | –
41 | CCOP(=O)(OCC)C(NCCc1ccc(Cl)cc1)c1ccc(O)cc1 (stereo not shown) [Compound 76] | > 25 | -16 | – | –
42 | CCOP(=O)(OCC)C(NC(c1ccccc1)c1ccccc1)c1cc(C(C)(C)C)c(O)c(C(C)(C)C)c1 (stereo not shown) [Compound 32] | < 25 | -12 | – | –
